The nature of data set [1]: Loading content by UV-Vis. The format is physicochemical. Conditions: for loading content of the drug in F127@PDA NPs: physical adsorption, conventional method. The protocol:
F127@PDA NPs (5 mg) was dissolved in 10 mM Tris buffer (5 mL) and Fluorescein-TEG-NH2 (10 mg, 2 wt eq.) dissolved in 0.5 mL ethanol was added dropwise. The mixture was protected from direct sunlight and stirred over night at room temperature. Excess Fluorescein-TEG-NH2 was removed washing with Milli-Q water using Vivaspin 20 (Satorius, UK) centrifugal concentrators (10 kDa MWCO) for 15 min at 4000 rpm until the supernatant was colourless, followed by 3 days dialysis against water with 12-14 kDa MWCO dialysis bags.
To assess the loading capacity, absorption of SN38 was investigated adapting a method by Wang et al.^[90] A suspension of 10 mg F127@PDA NPs (1 mg/mL) and 2.5 mg SN38 (0.25 wt eq.) in DMSO:H2O=1:10 (10 mL) were sonicated for 30 min, followed by stirring at room temperature for 72 hours. To remove free drug, the reaction mixture was first centrifuged at 2000 rpm for 5 min. The supernatant was collected and washed with Milli-Q water using Vivaspin 20 (Satorius, UK) centrifugal concentrators (10 kDa MWCO) for 15 min at 4000 rpm. The obtained particles were diluted in Milli-Q water, frozen in liquid nitrogen and lyophilised to yield a dark brown powder. The loading content of SN38 within the NPs was determined using UV-Vis. The absorbance of SN38@F127@PDA NPs at 382 nm was deducted by the F127@PDA absorbance and the loading content was calculated according to the following equation: (3).^[98]
F127@PDA NPs (5 mg) was dissolved in 10 mM Tris buffer (5 mL) and the corresponding ligand 4-6 (10 mg, 2 wt eq.) dissolved in 0.5 mL ethanol was added dropwise. The mixture was protected from direct sunlight and stirred over night at room temperature. […]
A suspension of 10 mg F127@PDA NPs (1 mg/mL) and 2.5 mg of the corresponding drug (0.25 wt eq.) in DMSO:H2O=1:10 (10 mL) were sonicated for 30 min, followed by stirring at room temperature for 72 hours. […] The loading content of Gem and PTX within the NPs was determined using UV-Vis. The absorbance of the free drug in the supernatant was measured and the loading content was calculated according to the following equation: […]

Data set [2] relates to AsPC-1. The experiment in a line: Live-cell imaging (IncuCyte) cytotoxicity of SN38 and SN38@F127@PDA. The class given is cell-based, human. Conditions: AsPC-1, live-cell imaging, 72 h treatment. As to the method:
(§1) All NPs were tested for cytotoxicity studies in AsPC-1, BxPC-3, MIA-PaCa-2, PANC-1 and ARPE-19. Cells were seeded into 96-well plates at concentration of 2000 cells/well, in 200 μl of complete growth medium and incubated at 37 C, 5% CO2 for 24 h. After overnight incubation, the cells were treated with different concentration of F127@PDA-40, F127@PDA-60 and F127@PDA-100 (0.01-100 μg/mL) dissolved in complete cell media, the same volume of water was added for the negative control. The plates were then inserted into the IncuCyte®S3 Live-Cell Analysis System (Sartorius) for real-time imaging. Treated plates were imaged every 3 h for 72 h under cell culture conditions with 10× objective using the brightfield channel. Mean cell confluence was calculated using the images taken from 3 random fields of view per well using the IncuCyte S3 v2017A software. All Incucyte experiments were performed in triplicate in three independent experiments. Relative confluence values were obtained by normalizing each value to the time zero value in each sample and normalised to the untreated control sample.
(§2) Cells were seeded into 96-well plates at concentration of 2000 cells/well, in 100 μl of complete growth medium and incubated at 37 C, 5% CO2 for 24 h. After overnight incubation, the cells were treated with SN38 and the same concentration of SN38@F127@PDA using various concentrations (0.0001 μM-1 μM). The plates were inserted into the IncuCyte®S3 Live-Cell Analysis System (Sartorius) for real-time imaging. Treated plates were imaged every 3 h for 72 h under cell culture conditions with 10× objective using the brightfield channel. Average cell confluence was calculated as described in the previous section. In addition to live cell imaging after 72 h incubation in the IncuCyte®S3 MTS assay was performed as described in the section above.

The subject of data set [3] is BxPC-3. Described as above. The format is cell-based, human. Conditions: BxPc-3, live-cell imaging, 72 h treatment. The protocol: as §1, §2
For data set [4], the system named is MIA PaCa-2. The data set is described as above. Particulars: MIA PaCa-2, live-cell imaging, 72 h treatment. The class given is cell-based, human. As to the method: as §1, §2
Data set [5] has as its system PANC-1. The data set is described as above. The class given is cell-based, human. Conditions: PANC-1, live-cell imaging, 72 h treatment. The protocol: as §1, §2
For data set [6], the system named is AsPC-1. The experiment in a line: MTS assay cytotoxicity of SN38 and SN38@F127@PDA. The format is cell-based, human. Conditions: AsPC-1, MTS, 72 h treatment. As to the method: (§3) Additionally, the effect of F127@PDA NPs on the viability of AsPC-1, BxPC-3, MIA PaCa-2, PANC-1 and ARPE-19 using MTS assay (Promega, USA.) Cells were seeded into clear 96-well plates containing 2000 cells/well in 100 μL complete growth medium and cultured for 24 h at 37° C. and 5% CO2. Subsequently, cells were treated with varying concentrations of F127@PDA_40, F127@PDA_60 and F127@PDA_100 (0.01-100 μg/mL) dissolved in complete growth media containing 0.1% water. After further 72 h incubation at 37° C. and 5% CO2, 20 μL of CelTiter 96® AQueous One Solution (Promega, USA) was added into each well and incubated at 37° C., 5% CO2 for 1-4 h, according to the manufacturer's instruction. The absorbance of each well was measured at 490 nm using a Spark plate reader (TECAN, CH). Control measurements included negative control of cells with DMEM, cells with DMEM containing 0.1% water, cell-free culture media (blank) and cell-free sample dilutions in culture media to evaluate potential sample interferences with MTS reagent. All experiments were conducted in biological triplicates. The percentage cell viability was calculated according to the following:
as §2
A general note: Tetrazolium dyes change colour on reduction, which living cells bring about.

In data set [7] the test system is BxPC-3. Briefly: MTS assay cytotoxicity of SN38 and SN38@F127@PDA. The format is cell-based, human. Particulars: BxPc-3, MTS, 72 h treatment. The protocol:
as §3, §2

In data set [8] the test system is MIA PaCa-2. Briefly: MTS assay cytotoxicity of SN38 and SN38@F127@PDA. The format is cell-based, human. Conditions: MIA PaCa-2, MTS, 72 h treatment. As to the method:
as §3, §2

Data set [9] has as its system PANC-1. Briefly: MTS assay cytotoxicity of SN38 and SN38@F127@PDA. The format is cell-based, human. Particulars: PANC-1, MTS, 72 h treatment. The protocol:
as §3, §2

Consider `Nc1ccn([C@@H]2O[C@H](CO)[C@@H](O)C2(F)F)c(=O)n1` [Gem, Gemcitabine], for which the “loading content of the drug in F127@PDA NPs” value in data set [1] is listed as 11.5±5.7 % (w/w).

Regarding `CC(=O)O[C@H]1C(=O)[C@@]2(C)[C@H]([C@H](OC(=O)c3ccccc3)[C@]3(O)C[C@H](OC(=O)[C@H](O)[C@@H](NC(=O)c4ccccc4)c4ccccc4)C(C)=C1C3(C)C)[C@]1(OC(C)=O)CO[C@@H]1C[C@@H]2O` [PTX, Paclitaxel], the “loading content of the drug in F127@PDA NPs” value in data set [1] is 14.3±4.7 % (w/w).

The IC50 is the midpoint of a concentration-inhibition curve. Read a low IC50 as inhibition by little substance. Turning to `CCc1c2c(nc3ccc(O)cc13)-c1cc3c(c(=O)n1C2)COC(=O)[C@]3(O)CC` [SN38], the IC50 in the data set with AsPC-1 [2] is 52.9 nM; in the data set with BxPC-3 [3] it was 8.91 nM; in the data set with MIA PaCa-2 [4], 12.1 nM; in the data set on PANC-1 [5], 56.1 nM; in the data set on AsPC-1 [6] it was 110 nM; in the data set with BxPC-3 [7], 56 nM. Moreover, the figures for the IC50 with MIA PaCa-2 [8] and in the data set on PANC-1 [9] were 13.1 nM and 113 nM, respectively.

On to “TAMRA-CONH—PKKKRKVC—COOH ({TAMRA}-PKKKRKVC-OH) [TAMRA-NLS]”, for which the “loading content (w/w) of the ligand on functionalized F127@PDA NPs” value in data set [1] (Michael addition post-functionalization) amounted to 3%.

The record behind these values is patent publication US20250221943A1, “POLYDOPAMINE CO-POLYMER NANOPARTICLES” (CAMBRIDGE ENTERPRISE LIMITED, priority 2022, published 2025).
